These results are taken from PubChem BioAssay (NCI).

Test in all cases: NCI tumour cell line growth inhibition, 48 h
Experiment [1] relates to NCI-H226 lung.
For experiment [2], the system named is SR leukemia.
Experiment [3] relates to OVCAR-4 ovarian.
The subject of experiment [4] is NCI-H23 lung.
In experiment [5] the test system is MDA-N.
In experiment [6] the test system is SNB-75 CNS.
In experiment [7] the test system is EKVX NSCLC.
For experiment [8], the system named is HT29 colon.
Experiment [9] has as its system SF-295 CNS.
The test system of experiment [10] is NCI/ADR-RES ovarian.
The test system of experiment [11] is CAKI-1 renal.
Experiment [12] deals with BT-549 breast.
Experiment [13] has as its system A549 NSCLC.
Experiment [14] relates to T-47D breast.
Experiment [15] relates to MOLT-4 leukemia.
The subject of experiment [16] is A498 renal.
The test system of experiment [17] is UACC-62 melanoma.
In experiment [18] the test system is SF-268 CNS.
The test system of experiment [19] is HL-60(TB) leukemia.

Each structure is given as a SMILES string.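 Five concentrations, 48 hours, 96-well plates. The concentration for full growth arrest is given as TGI.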

In the case of `CC(=O)Oc1ccc(-c2nnc(-c3ccc(OC(C)=O)cc3)nn2)cc1`, the TGI in experiment [1] is greater than 100 µM; in experiment [2], 88.1 µM; in experiment [3] it was greater than 100 µM; in experiment [4] it was greater than 100 µM; in experiment [5], greater than 100 µM; in [6], greater than 100 µM. Further, the TGI in experiment [7], in experiment [8], in [9], in [10], in experiment [11] and in experiment [12] was greater than 100 µM each time. In addition, the TGI in [13], in [14], in [15], in experiment [16], in [17] and in [18] was greater than 100 µM throughout. This molecule registered a TGI in [19] of 84 µM.

Turning to `O=C(Nc1ccc(Cl)cc1Cl)C1C(=O)OC2(CCCCC2)OC1=O`, the TGI in experiment [1] is 29.3 µM; in experiment [2], 64.1 µM; in [3] it was greater than 100 µM; in experiment [4] it was 19.1 µM; in [5], 61.2 µM; in experiment [6], 29.2 µM. Also, the TGI in experiment [7] is 32.3 µM; in experiment [8] it was 25 µM; in experiment [9], 19.4 µM; in [10] it was 26.4 µM; in [11] it was 22.5 µM; in [12], 26.7 µM. Further, the TGI came out at 28.8 µM in [13]; 62.2 µM in experiment [14]; 26.9 µM in experiment [15]; 31.5 µM in experiment [16]; 24.4 µM in experiment [17]; 50.5 µM in experiment [18]. This molecule returned a TGI in experiment [19] of 29.9 µM.

Take `NCCc1ccc(S(=O)(=O)O)cc1[N+](=O)[O-]`: the TGI in [1], in experiment [2], in [3], in experiment [4], in experiment [5] and in [6] was greater than 100 µM each time. In addition, the TGI in [7], in experiment [8], in [9], in [10], in experiment [11] and in experiment [12] was greater than 100 µM each time. Besides, the TGI in [13] is greater than 100 µM; in [14] it was greater than 100 µM; in experiment [15] it was greater than 32.4 µM; in experiment [16] it was greater than 100 µM; in [17], greater than 100 µM; in experiment [18] it was greater than 100 µM. In addition, the TGI in experiment [19] was greater than 100 µM.

On to `CC(C)=CCC[C@@H](C)C1=C(N)C(O)=C(C)C(=O)C1=O`, for which the TGI in experiment [1], in [2], in experiment [3], in experiment [4], in experiment [5] and in experiment [6] was greater than 75 µM in each case. For the same molecule, the TGI in experiment [7] is greater than 75 µM; in experiment [8], greater than 48 µM; in experiment [9] it was greater than 75 µM; in experiment [10], greater than 38.8 µM; in experiment [11], greater than 75 µM; in experiment [12] it was greater than 75 µM. In addition, the TGI was greater than 75 µM in experiment [13]; greater than 75 µM in experiment [14]; greater than 67.5 µM in experiment [15]; greater than 75 µM in experiment [16]; greater than 75 µM in [17]; greater than 75 µM in experiment [18]. The TGI in experiment [19] was 39.5 µM.

Turning to `N/C(=N\N=C\c1nc2ccccc2o1)c1cnccn1`, the TGI was greater than 100 µM in experiment [1]; greater than 100 µM in [2]; greater than 100 µM in experiment [3]; greater than 100 µM in [4]; greater than 100 µM in experiment [5]; 42.8 µM in [6]. For the same molecule, the TGI in experiment [7], in experiment [8], in [9], in experiment [10], in experiment [11] and in [12] was greater than 100 µM throughout. Further, the TGI in [13], in experiment [14], in experiment [15], in experiment [16], in experiment [17] and in experiment [18] was greater than 100 µM in each case. Also, the TGI in experiment [19] was greater than 100 µM.

For `Cc1nc2ccc(N=Nc3c(C)noc3C)cc2[nH]1`, the TGI was greater than 100 µM in [1]; 69.9 µM in experiment [2]; greater than 100 µM in experiment [3]; greater than 100 µM in experiment [4]; greater than 100 µM in experiment [5]; 32.9 µM in experiment [6]. Also, the TGI in experiment [7] was greater than 100 µM; in experiment [8] it was 71.1 µM; in experiment [9], greater than 100 µM; in experiment [10], greater than 100 µM; in experiment [11] it was 86.8 µM; in experiment [12], greater than 100 µM. For the same molecule, the TGI in experiment [13] is greater than 100 µM; in experiment [14] it was 15.2 µM; in experiment [15], 58.5 µM; in experiment [16] it was 34.8 µM; in experiment [17] it was 75.9 µM; in [18] it was greater than 100 µM. The TGI in [19] is 61.6 µM.

Regarding `O=[N+]([O-])c1ccc2c3c1[C@@H]1O[C@@H]1c1cccc(c1-3)[C@@H]1O[C@H]21`, the TGI is greater than 80.9 µM in experiment [1]; greater than 100 µM in [2]; 9.48 µM in experiment [3]; 11.6 µM in experiment [4]; 10.5 µM in [5]; 17.5 µM in experiment [6]. The TGI was 20.4 µM in experiment [7]; 14.7 µM in experiment [8]; 40.8 µM in experiment [9]; greater than 38.5 µM in [10]; 3.2 µM in experiment [11]; 21.1 µM in experiment [12]. Also, the TGI in [13] is 31 µM; in experiment [14] it was 12 µM; in experiment [15], greater than 100 µM; in experiment [16] it was 8.87 µM; in [17], 31.6 µM; in experiment [18], 10.6 µM. In addition, in experiment [19], the TGI was 7.58 µM.

Take `O=C(OC1OC2COC(=O)c3cc(O)c(O)c(O)c3-c3c(cc(O)c(O)c3O)C(=O)OC3C2OC(=O)[C@@]24CC(=O)[C@@](O)(OC25C(=O)O[C@H]2[C@@H](O)CO[C@@]25O)C2(O)Oc5c(O)c(O)cc(c5C24)C(=O)OC13)c1cc(O)c(O)c(O)c1` (some centres not stated): the TGI was greater than 100 µM in [1]; 94.6 µM in experiment [2]; greater than 100 µM in experiment [3]; greater than 100 µM in experiment [4]; greater than 100 µM in experiment [5]; greater than 100 µM in experiment [6]. In addition, the TGI is greater than 100 µM in experiment [7]; greater than 100 µM in experiment [8]; greater than 100 µM in experiment [9]; greater than 100 µM in experiment [10]; 32.1 µM in experiment [11]; greater than 100 µM in [12]. The TGI in experiment [13], in [14], in experiment [15], in experiment [16], in experiment [17] and in experiment [18] was greater than 100 µM in each case. For the same molecule, the TGI in experiment [19] came to 92.3 µM.
